Laboratory results reported in ChEMBL document CHEMBL4765228, “Indole-like Trk receptor antagonists” (Eur J Med Chem, 2016).

Columns and labels:
[1] = target: High affinity nerve growth factor receptor (Homo sapiens, UniProt P04629); test: Inhibition of human TRKA assessed as residual activity at 1 uM relative to control
[2] = target: Ephrin type-A receptor 2 (Homo sapiens) (UniProt P29317); test: Inhibition of human EPHA2 assessed as residual activity at 1 uM relative to control
[3] = target: 5'-AMP-activated protein kinase catalytic subunit alpha-1 (Homo sapiens) (UniProt Q13131); test: Inhibition of human AMPKalpha1 (1 to 550 residues assessed as residual activity at 0.1 uM relative to control
[4] = target: 5'-AMP-activated protein kinase catalytic subunit alpha-1 (Homo sapiens) (UniProt Q13131); test: Inhibition of human AMPKalpha1 (1 to 550 residues assessed as residual activity at 1 uM relative to control
[5] = target: Ribosomal protein S6 kinase alpha-5 (Homo sapiens) (UniProt O75582); test: Inhibition of human RPS6KA5 assessed as residual activity at 1 uM relative to control
[6] = target: Rho-associated protein kinase 2 (Homo sapiens) (UniProt O75116); test: Inhibition of human ROCK2 assessed as residual activity at 1 uM relative to control
[7] = target: T1, Serine/threonine-protein kinase 3 (Homo sapiens) (UniProt Q13188); test: Inhibition of human MST2 assessed as residual activity at 1 uM relative to control
T1 sequence (whole entry): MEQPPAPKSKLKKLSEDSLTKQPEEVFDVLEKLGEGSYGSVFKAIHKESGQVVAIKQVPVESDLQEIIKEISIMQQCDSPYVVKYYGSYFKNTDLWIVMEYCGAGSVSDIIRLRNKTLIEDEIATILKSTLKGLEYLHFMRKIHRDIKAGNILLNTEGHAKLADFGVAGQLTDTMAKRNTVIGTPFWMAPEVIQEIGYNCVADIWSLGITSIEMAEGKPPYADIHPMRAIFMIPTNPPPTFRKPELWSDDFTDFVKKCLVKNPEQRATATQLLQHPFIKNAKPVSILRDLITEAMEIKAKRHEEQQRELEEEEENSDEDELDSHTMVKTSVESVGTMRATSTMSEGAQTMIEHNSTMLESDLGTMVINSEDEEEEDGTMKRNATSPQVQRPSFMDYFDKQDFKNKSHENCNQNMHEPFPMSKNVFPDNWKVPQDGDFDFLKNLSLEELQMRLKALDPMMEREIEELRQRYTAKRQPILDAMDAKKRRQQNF

[8] = target: 3-phosphoinositide-dependent protein kinase 1 (Homo sapiens) (UniProt O15530); test: Inhibition of human PDK1 assessed as residual activity at 1 uM relative to control
Sequence of 3-phosphoinositide-dependent protein kinase 1 (Homo sapiens) (O15530 whole entry, looked up): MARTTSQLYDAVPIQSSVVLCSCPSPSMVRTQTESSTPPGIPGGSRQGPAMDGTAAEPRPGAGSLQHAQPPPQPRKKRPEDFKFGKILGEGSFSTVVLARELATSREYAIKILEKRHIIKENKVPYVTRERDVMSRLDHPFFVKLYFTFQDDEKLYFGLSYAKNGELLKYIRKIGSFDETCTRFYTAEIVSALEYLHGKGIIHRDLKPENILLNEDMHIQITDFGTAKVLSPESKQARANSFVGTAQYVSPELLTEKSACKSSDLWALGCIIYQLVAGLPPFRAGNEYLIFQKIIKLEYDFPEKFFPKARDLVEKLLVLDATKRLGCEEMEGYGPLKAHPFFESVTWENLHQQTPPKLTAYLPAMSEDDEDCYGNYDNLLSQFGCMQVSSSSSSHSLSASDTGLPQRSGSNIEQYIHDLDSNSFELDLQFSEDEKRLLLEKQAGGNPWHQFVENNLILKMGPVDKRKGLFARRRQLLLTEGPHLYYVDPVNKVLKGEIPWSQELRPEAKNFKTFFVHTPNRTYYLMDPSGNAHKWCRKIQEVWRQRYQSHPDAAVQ

[9] = target: Dual specificity tyrosine-phosphorylation-regulated kinase 1A (Homo sapiens) (UniProt Q13627); test: Inhibition of human DYRK1A assessed as residual activity at 1 uM relative to control
[10] = target: Tyrosine-protein kinase JAK2 (Homo sapiens) (UniProt O60674); test: Inhibition of human JAK2 assessed as residual activity at 1 uM relative to control
[11] = target: Serine/threonine-protein kinase N2 (Homo sapiens) (UniProt Q16513); test: Inhibition of human PRK2 assessed as residual activity at 0.1 uM relative to control
Sequence of Serine/threonine-protein kinase N2 (Homo sapiens) (Q16513 whole entry, looked up, the tested form may be a part): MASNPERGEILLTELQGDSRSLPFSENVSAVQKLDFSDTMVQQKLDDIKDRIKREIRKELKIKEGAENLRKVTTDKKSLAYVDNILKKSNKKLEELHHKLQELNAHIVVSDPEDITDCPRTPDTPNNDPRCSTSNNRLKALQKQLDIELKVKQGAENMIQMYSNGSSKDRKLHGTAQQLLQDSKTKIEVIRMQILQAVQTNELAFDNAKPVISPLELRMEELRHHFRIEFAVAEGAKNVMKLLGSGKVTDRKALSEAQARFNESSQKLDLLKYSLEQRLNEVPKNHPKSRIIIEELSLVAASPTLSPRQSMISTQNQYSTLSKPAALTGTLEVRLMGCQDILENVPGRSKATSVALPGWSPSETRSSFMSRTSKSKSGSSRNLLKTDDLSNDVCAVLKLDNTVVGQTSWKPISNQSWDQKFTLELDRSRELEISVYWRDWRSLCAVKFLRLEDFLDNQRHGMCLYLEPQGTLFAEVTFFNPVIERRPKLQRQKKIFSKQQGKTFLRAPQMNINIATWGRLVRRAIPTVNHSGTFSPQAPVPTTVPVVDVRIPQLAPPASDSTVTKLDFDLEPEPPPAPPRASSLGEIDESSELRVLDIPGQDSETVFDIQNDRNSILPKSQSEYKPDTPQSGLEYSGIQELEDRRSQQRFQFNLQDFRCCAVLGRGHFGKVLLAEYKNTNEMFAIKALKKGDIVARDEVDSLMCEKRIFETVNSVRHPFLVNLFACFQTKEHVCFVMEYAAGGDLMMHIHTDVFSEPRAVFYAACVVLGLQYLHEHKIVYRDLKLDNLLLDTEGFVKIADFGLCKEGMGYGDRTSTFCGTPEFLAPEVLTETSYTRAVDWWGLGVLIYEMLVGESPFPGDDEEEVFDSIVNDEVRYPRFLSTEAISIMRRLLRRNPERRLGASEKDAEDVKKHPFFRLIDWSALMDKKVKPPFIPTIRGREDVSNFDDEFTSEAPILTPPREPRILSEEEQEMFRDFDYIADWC

[12] = target: RAC-alpha serine/threonine-protein kinase (Homo sapiens) (UniProt P31749); test: Inhibition of human AKT1 (104 to 408 residues) assessed as residual activity at 0.1 uM relative to control
[13] = target: Serine/threonine-protein kinase PAK 4 (Homo sapiens) (UniProt O96013); test: Inhibition of human PAK4 assessed as residual activity at 1 uM relative to control
[14] = target: Serine/threonine-protein kinase PLK1 (Homo sapiens) (UniProt P53350); test: Inhibition of human PLK1 assessed as residual activity at 1 uM relative to control
[15] = target: Glycogen synthase kinase-3 beta (Homo sapiens) (UniProt P49841); test: Inhibition of human GSK3-beta assessed as residual activity at 0.1 uM relative to control
[16] = target: Dual specificity mitogen-activated protein kinase kinase 1 (Homo sapiens) (UniProt Q02750); test: Inhibition of human wild type MEK1 assessed as residual activity at 1 uM relative to control
Sequence of Dual specificity mitogen-activated protein kinase kinase 1 (Homo sapiens) (Q02750 whole entry): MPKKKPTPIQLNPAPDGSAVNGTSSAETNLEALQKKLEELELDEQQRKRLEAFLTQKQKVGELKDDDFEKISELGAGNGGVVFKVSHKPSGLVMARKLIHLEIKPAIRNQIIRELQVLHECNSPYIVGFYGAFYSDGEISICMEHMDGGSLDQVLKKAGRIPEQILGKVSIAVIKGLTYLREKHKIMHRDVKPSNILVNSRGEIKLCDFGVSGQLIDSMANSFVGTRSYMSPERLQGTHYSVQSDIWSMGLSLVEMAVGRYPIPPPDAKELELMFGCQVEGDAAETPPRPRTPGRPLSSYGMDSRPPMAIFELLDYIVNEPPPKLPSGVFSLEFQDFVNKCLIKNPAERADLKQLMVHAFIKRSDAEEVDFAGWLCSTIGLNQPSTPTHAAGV

[17] = target: Calcium/calmodulin-dependent protein kinase kinase 2 (Homo sapiens) (UniProt Q96RR4); test: Inhibition of human CAMKK2 assessed as residual activity at 1 uM relative to control
Sequence of Calcium/calmodulin-dependent protein kinase kinase 2 (Homo sapiens) (Q96RR4 2-588 limits assumed): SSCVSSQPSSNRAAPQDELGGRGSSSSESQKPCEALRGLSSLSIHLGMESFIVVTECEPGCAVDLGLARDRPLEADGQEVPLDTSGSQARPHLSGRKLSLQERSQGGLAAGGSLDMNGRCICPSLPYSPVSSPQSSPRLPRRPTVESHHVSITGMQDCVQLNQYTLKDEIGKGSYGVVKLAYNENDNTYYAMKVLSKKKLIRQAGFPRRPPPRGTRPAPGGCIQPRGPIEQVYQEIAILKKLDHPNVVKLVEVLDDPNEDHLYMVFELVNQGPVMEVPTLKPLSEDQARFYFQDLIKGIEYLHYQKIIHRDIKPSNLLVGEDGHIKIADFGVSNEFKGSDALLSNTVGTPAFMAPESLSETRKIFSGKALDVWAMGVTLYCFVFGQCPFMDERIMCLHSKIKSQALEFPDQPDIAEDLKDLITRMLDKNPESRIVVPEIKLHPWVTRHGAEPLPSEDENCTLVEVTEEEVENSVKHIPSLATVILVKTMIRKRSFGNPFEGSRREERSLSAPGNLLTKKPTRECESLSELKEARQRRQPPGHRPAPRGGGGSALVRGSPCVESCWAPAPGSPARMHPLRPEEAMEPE

[18] = target: Calcium/calmodulin-dependent protein kinase type 1D (Homo sapiens) (UniProt Q8IU85); test: Inhibition of human CAMK1D assessed as residual activity at 0.1 uM relative to control
Sequence of Calcium/calmodulin-dependent protein kinase type 1D (Homo sapiens) (Q8IU85 whole entry, looked up): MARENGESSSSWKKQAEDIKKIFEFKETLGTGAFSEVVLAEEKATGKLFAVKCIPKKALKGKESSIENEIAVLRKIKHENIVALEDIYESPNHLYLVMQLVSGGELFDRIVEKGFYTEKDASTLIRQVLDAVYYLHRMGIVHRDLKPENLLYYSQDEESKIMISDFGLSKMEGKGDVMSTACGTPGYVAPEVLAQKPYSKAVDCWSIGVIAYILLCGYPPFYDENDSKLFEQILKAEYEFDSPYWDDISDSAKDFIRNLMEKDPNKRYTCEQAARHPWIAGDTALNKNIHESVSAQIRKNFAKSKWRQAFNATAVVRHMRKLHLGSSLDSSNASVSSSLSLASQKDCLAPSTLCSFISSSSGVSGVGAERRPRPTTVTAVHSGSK

[19] = target: Serine/threonine-protein kinase N2 (Homo sapiens) (UniProt Q16513); test: Inhibition of human PRK2 assessed as residual activity at 1 uM relative to control
[20] = target: Receptor tyrosine-protein kinase erbB-4 (Homo sapiens) (UniProt Q15303); test: Inhibition of human ERBB4 assessed as residual activity at 1 uM relative to control
[21] = target: T2, Interleukin-1 receptor-associated kinase 4 (Homo sapiens) (UniProt Q9NWZ3); test: Inhibition of human untagged IRAK4 assessed as residual activity at 0.1 uM relative to control
T2 sequence (whole entry): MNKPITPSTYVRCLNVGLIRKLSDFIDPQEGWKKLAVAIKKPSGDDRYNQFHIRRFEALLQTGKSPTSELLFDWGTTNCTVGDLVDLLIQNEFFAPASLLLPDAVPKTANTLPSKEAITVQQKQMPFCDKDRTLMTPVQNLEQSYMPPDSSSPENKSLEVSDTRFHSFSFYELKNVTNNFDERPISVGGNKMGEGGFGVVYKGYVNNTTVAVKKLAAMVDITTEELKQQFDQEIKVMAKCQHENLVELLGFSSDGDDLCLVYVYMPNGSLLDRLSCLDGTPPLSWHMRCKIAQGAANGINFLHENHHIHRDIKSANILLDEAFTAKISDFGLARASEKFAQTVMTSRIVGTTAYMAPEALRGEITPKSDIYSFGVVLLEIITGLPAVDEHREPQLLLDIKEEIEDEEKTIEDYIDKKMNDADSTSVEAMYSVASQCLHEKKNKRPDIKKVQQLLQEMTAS

[22] = target: Casein kinase I isoform delta (Homo sapiens) (UniProt P48730); test: Inhibition of human CK1-delta assessed as residual activity at 1 uM relative to control
Sequence of Casein kinase I isoform delta (Homo sapiens) (P48730 whole entry, looked up, canonical isoform): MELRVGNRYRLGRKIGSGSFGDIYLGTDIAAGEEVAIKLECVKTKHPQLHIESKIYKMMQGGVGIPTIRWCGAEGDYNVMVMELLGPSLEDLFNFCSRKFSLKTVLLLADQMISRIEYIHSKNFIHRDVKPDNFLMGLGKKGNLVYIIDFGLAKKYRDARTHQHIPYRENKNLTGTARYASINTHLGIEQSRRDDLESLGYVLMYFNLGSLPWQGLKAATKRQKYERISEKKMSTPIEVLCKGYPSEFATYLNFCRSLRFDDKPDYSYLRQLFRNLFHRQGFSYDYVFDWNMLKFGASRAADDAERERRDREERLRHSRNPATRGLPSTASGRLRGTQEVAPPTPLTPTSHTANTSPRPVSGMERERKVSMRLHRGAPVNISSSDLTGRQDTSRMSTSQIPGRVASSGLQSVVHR

[23] = target: Mitogen-activated protein kinase 8 (Homo sapiens) (UniProt P45983); test: Inhibition of human JNK1 assessed as residual activity at 0.1 uM relative to control
[24] = target: Casein kinase II subunit alpha (Homo sapiens) (UniProt P68400); test: Inhibition of human CK2alpha1 assessed as residual activity at 0.1 uM relative to control
Sequence of Casein kinase II subunit alpha (Homo sapiens) (P68400 whole entry, looked up): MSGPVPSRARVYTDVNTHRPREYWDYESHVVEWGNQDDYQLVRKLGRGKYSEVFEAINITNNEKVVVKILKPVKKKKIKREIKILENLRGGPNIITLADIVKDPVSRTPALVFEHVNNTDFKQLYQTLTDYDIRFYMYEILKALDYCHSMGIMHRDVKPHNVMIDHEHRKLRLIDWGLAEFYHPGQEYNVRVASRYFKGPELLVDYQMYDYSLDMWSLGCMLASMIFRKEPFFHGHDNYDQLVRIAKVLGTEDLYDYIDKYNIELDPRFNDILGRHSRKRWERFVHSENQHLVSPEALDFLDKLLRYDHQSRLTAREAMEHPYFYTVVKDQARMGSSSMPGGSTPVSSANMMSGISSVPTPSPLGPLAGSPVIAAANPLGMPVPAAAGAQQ

[25] = target: Vascular endothelial growth factor receptor 1 (Homo sapiens) (UniProt P17948); test: Inhibition of human VEGFR1 assessed as residual activity at 0.1 uM relative to control
Sequence of Vascular endothelial growth factor receptor 1 (Homo sapiens) (P17948 whole entry): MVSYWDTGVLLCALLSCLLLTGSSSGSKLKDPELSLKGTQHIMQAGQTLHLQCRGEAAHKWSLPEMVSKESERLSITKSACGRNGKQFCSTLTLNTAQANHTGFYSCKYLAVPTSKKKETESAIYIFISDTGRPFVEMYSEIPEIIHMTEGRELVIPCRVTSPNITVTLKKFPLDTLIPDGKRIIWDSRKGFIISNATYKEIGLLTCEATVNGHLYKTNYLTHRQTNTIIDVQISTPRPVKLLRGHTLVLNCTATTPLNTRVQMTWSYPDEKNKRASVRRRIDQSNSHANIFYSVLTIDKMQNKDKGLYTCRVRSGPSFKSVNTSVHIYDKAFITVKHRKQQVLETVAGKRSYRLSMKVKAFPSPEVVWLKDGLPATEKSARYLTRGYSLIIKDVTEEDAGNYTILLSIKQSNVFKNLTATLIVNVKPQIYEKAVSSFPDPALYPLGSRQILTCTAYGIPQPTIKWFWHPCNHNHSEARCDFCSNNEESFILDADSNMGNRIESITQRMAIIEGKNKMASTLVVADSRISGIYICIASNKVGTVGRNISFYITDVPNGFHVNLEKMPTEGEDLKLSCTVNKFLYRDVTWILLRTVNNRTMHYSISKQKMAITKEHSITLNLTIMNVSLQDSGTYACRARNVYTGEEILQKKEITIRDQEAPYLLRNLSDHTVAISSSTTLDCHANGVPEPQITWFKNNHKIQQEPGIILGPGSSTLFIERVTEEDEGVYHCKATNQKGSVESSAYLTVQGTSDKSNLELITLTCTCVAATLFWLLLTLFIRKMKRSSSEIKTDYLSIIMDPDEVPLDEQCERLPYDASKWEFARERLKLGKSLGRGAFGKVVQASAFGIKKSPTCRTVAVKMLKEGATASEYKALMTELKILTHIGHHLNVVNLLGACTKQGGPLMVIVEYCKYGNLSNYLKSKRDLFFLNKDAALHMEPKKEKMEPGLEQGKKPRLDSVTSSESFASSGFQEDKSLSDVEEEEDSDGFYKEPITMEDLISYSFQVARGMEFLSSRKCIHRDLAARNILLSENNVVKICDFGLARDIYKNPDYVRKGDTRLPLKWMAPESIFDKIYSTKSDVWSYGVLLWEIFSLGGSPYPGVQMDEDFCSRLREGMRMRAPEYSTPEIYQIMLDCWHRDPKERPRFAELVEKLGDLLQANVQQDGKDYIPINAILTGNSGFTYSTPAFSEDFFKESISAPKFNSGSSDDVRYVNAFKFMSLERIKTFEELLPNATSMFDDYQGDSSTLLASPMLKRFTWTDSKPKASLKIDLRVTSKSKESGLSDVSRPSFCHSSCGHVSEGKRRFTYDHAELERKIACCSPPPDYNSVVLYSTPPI

[26] = target: Myosin light chain kinase, smooth muscle (Homo sapiens) (UniProt Q15746); test: Inhibition of human MYLK assessed as residual activity at 0.1 uM relative to control

Structure (SMILES) | Activity [1] [%] | Activity [2] [%] | Activity [3] [%] | Activity [4] [%] | Activity [5] [%] | Activity [6] [%] | Activity [7] [%] | Activity [8] [%] | Activity [9] [%] | Activity [10] [%] | Activity [11] [%] | Activity [12] [%] | Activity [13] [%] | Activity [14] [%] | Activity [15] [%] | Activity [16] [%] | Activity [17] [%] | Activity [18] [%] | Activity [19] [%] | Activity [20] [%] | further results
COc1ccc2c(c1)c(/C=C1\C(=O)Nc3ccc(S(N)(=O)=O)cc31)cn2C | 1 | 89 | 94 | 89 | 95 | 87 | 84 | 75 | 99 | 86 | 98 | 92 | 68 | 93 | 93 | 71 | 19 | 84 | 89 | 87 | Activity [21]: 12%; Activity [22]: 84%; Activity [23]: 110%; Activity [24]: 101%; Activity [25]: 94%; Activity [26]: 94%
Cn1cc(/C=C2\C(=O)Nc3ccc(S(N)(=O)=O)cc32)c2ccccc21 | 2 | 90 | 83 | 56 | 93 | 55 | 62 | 70 | 114 | 67 | 94 | 92 | 78 | 91 | 104 | 59 | 25 | 106 | 78 | 101 | Activity [21]: 6%; Activity [22]: 82%; Activity [23]: 121%; Activity [24]: 102%; Activity [25]: 82%; Activity [26]: 97%
CNS(=O)(=O)c1ccc2c(c1)/C(=C/c1cn(C)c3ccc(OC)cc13)C(=O)N2 | 3 | 84 | 104 | 88 | 88 | 79 | 77 | 123 | 95 | 87 | 90 | 93 | 91 | 87 | 90 | 93 | 50 | 90 | 86 | 42 | Activity [21]: 59%; Activity [22]: 91%; Activity [23]: 103%; Activity [24]: 105%; Activity [25]: 91%; Activity [26]: 92%

Further lines, with some results ahead:

Activity [1] [%] | Activity [2] [%] | Activity [3] [%] | Activity [4] [%] | Activity [5] [%] | Activity [6] [%] | Activity [7] [%] | Activity [8] [%] | Activity [9] [%] | Activity [10] [%] | Activity [11] [%] | Activity [12] [%] | Activity [13] [%] | Activity [14] [%] | Activity [15] [%] | Activity [16] [%] | Activity [17] [%] | Activity [18] [%] | Activity [19] [%] | Activity [20] [%] | Structure (SMILES) | further results
0 | 98 | 101 | 72 | 95 | 61 | 64 | 66 | 96 | 67 | 96 | 115 | 82 | 95 | 103 | 72 | 31 | 97 | 81 | 60 | COc1ccc2[nH]cc(/C=C3\C(=O)Nc4ccc(S(N)(=O)=O)cc43)c2c1 | Activity [21]: 45%; Activity [22]: 79%; Activity [23]: 103%; Activity [24]: 90%; Activity [25]: 96%; Activity [26]: 94%
2 | 98 | 103 | 87 | 107 | 69 | 83 | 83 | 101 | 55 | 91 | 105 | 90 | 91 | 99 | 98 | 25 | 100 | 89 | 95 | CN(C)S(=O)(=O)c1ccc2c(c1)/C(=C/c1cn(C)c3ccc(O)cc13)C(=O)N2 | Activity [21]: 68%; Activity [22]: 87%; Activity [23]: 105%; Activity [24]: 97%; Activity [25]: 100%; Activity [26]: 91%
6 | 89 | 98 | 91 | 108 | 89 | 104 | 84 | 94 | 72 | 108 | 101 | 99 | 93 | 98 | 97 | 30 | 99 | 94 | 85 | COc1ccc2c(c1)c(/C=C1\C(=O)Nc3ccc(S(=O)(=O)N(C)C)cc31)cn2C | Activity [21]: 91%; Activity [22]: 86%; Activity [23]: 103%; Activity [24]: 98%; Activity [25]: 96%; Activity [26]: 94%
